# Laboratory results as given in patent EP3445382B1, “HARUNGANA MADAGASCARIENSIS LEAF EXTRACT FOR USE IN THE TREATMENT AND/OR PREVENTION OF ACNE” (Société d'Exploitation de Produits pour les Industries …, priority 2016, dated 2017).
# What was measured:
# [1] = target: T1, pancreatic lipase (PL; 3.1.1.3) (Homo sapiens, UniProt P16233); assay: lipase activity, biochemical test with radioactive triolein substrate; conditions: 1000 nM; 2 hours at 37 °C
# T1 sequence (P16233 17-465): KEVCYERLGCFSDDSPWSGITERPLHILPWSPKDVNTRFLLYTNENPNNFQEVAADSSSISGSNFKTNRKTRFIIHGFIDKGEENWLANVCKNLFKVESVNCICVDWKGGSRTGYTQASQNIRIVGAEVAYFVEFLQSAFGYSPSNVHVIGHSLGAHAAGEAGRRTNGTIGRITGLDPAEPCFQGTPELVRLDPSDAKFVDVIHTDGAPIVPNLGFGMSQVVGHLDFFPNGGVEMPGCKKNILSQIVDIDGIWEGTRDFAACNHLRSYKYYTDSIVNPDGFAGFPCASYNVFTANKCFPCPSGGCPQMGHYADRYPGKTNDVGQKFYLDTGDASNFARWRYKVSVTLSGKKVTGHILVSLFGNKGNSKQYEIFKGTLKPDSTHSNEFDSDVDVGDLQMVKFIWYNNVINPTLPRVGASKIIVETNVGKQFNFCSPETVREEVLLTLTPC
# Protocol: In the present example, the effect of HMA extract was evaluated on the lipase activity with a biochemical test using a radioactive substrate. The lipase catalyzes the hydrolysis of glycerol-ester (glycerides) and long chain fatty acid emulsions. The substrate of this enzyme is not a simple molecule but a non-aqueous phase of aggregated lipids. The usual method to quantify the lipase activity is titration (pH variation) which is not often efficient for the testing of inhibitory compounds and generates several artifacts. An alternative and more efficient method (followed in the present example) was to use a radioactive complex lipid substrate.
# The quantification of lipase activity was undertaken as follows: Samples of HMA extract to be analyzed were prepared from a stock solution containing 5% (w/v) in glycerol/ultra-pure water (60/40).
# The compound and the reference (Orlistat tested at 1000 nM) were incubated for 2 hours at 37 °C in presence of the enzyme, pancreatic lipase (PL; 3.1.1.3) at 125 U/ml and the radioactive substrate (3.34 µCi/tube, stable emulsion of triolein at 5.25 mM corresponding to a mix of cold and titriated triolein). A negative control was performed by incubating the substrate alone, without enzyme in the reaction mix, in order to determine the background signal. […]
# (§1) Raw data were analyzed using Microsoft Excel® software. […]
# [2] = acellular lipid peroxidation, TBARS production (hemin-induced, phosphatidylcholine micelles); assay type: biochemical; conditions: 10 µM, hemin 5 µM, 1 hour at 37 °C
# Protocol: In the present example, the effect of HMA extract was evaluated on oxidative stress. More specifically, its protective effect against lipid peroxidation (acellular reaction) was evaluated by measuring the production of thiobarbituric acid reactive substances (TBARS). The quantification of anti-oxidant capacity was undertaken as follows: Samples of HMA extract to be analyzed were prepared from a stock solution containing 5% (w/v) in glycerol/ultra-pure water (60/40). […] Additional control conditions were also included in the experimental design: without inducer (non-activated condition), 'Interference' controls (test compound added to the reactive medium without micelles of lipids to assess a potential auto-fluorescence of compounds) and 'Quenching' controls (test compound added at the end of reaction to check for potential quenching of the signal directly by the test compounds). […] TBARS thus produced were then evaluated by fluorescence measurement (λex 540 nm; λem 590 nm). The results are expressed as TBARS equivalent, representing the antioxidant activity expressed as Trolox equivalent of the test compound. Raw data were analyzed using Microsoft Excel® software. […]
# [3] = test system: IL-8 release by LPS-stimulated PBMCs; assay: IL-8 release by LPS-stimulated PBMCs (ELISA); assay type: cell-based; conditions: Homo sapiens, PBMC; 10^-7 M; LPS 1 µg/ml, 24 hours
# Protocol: (§2) In the present example, the potential anti-inflammatory effect of HMA extract was investigated in human peripheral blood mononuclear cells (PBMCs) under stimulated conditions. More precisely, the effect of the test compound was evaluated on IL-8, IL-10 and IL-12 release by LPS-stimulated PBMCs using specific ELISA kits.
# (§3) The quantification of anti-inflammatory effects was undertaken as follows: Samples of HMA extract to be analyzed were prepared from a stock solution containing 5% (w/v) in glycerol/ultra-pure water (60/40).
# (§4) PBMCs were isolated from whole blood, seeded in 96-well plates and incubated in culture medium for 1 hour. The medium was then replaced by culture medium containing or not (stimulated control) the test compound or the reference compound, i.e., dexamethasone tested at 10^-7 M, and cells were pre-incubated for 1 hour. The inflammatory inducer, LPS (1 µg/ml) was then added and cells were incubated for 24 hours. A non-stimulated control was also performed in parallel. All experimental conditions were performed in n=3.
# (§5) After incubation, the culture supernatants were collected in order to quantify IL-8, IL-10 and IL-12 release. […]
# (§6) The quantity of IL-8, IL-10 and IL-12 released in the culture supernatants was measured using specific ELISA kits according to the supplier's instructions.
# as §1
# [4] = test system: IL-12 release by LPS-stimulated PBMCs; assay: IL-12 release by LPS-stimulated PBMCs (ELISA); assay type: cell-based, human; conditions: 10^-7 M, LPS 1 µg/ml
# Protocol: as §2, §3, §4, §5, §6, §1
# [5] = test system: IL-10 release by LPS-stimulated PBMCs; assay: IL-10 release by LPS-stimulated PBMCs (ELISA); assay type: cell-based, human; conditions: 10^-7 M, LPS 1 µg/ml, 24 hours
# Protocol: as §2, §3, §4, §5, §6, §1
# [6] = test system: PBMCs; assay: viability assay (alamarBlue) on LPS-stimulated PBMCs; assay type: cell-based, human; conditions: 10^-7 M
# Protocol: as §4
# After incubation, the culture supernatants were collected in order to quantify IL-8, IL-10 and IL-12 release. A viability assay was performed on cells according to a standard alamarBlue® protocol.
# After treatment, the cells were incubated with alamarBlue® reduced in resorufin via the mitochondrial reduction reactions of metabolically active cells. This transformation is proportional to the number of living cells. The optical density (OD) at 570nm was recorded using a microplate reader (VERSAmax, Molecular Devices).
smiles,measurement,setting,value
CCCCCCCCCCC[C@@H](C[C@@H]1OC(=O)[C@H]1CCCCCC)OC(=O)[C@H](CC(C)C)NC=O [Orlistat],inhibition at 1 µM,[1],41%
"Cc1c(C)c2c(c(C)c1O)CCC(C)(C(=O)O)O2 (centres unmarked) [Trolox, 6-hydroxy-2,5,7,8-tetramethylchroman-2-carboxylic acid]",% Inhibition,[2],72%
"C[C@@H]1C[C@H]2[C@@H]3CCC4=CC(=O)C=C[C@]4(C)[C@@]3(F)[C@@H](O)C[C@]2(C)[C@@]1(O)C(=O)CO [Dexamethasone, dexamethasone]",inhibition at 0.1 µM,[3],72%
same,% Inhibition,[4]; 24 hours,>100%
same,inhibition at 0.1 µM,"[4]; Homo sapiens, PBMC, 24 h",100%
same,% Inhibition (I) or % stimulation (S),[5],32 (I) %
same,inhibition at 0.1 µM,"[5]; Homo sapiens, PBMC, inhibition (I), read-out: % Inhibition (I) or % stimulation (S)",32%
same,Viability % stimulated control,[6],88 % stimulated control
